In paper PMC10589313 (Nature Communications, 2023):
Values joined by “and” are separate entries in the source; they are usually repeats but may differ in a detail not shown here. Identical values can stand only once.

What was measured:
human wild-type H4R = target: T1, human wild-type H4R (Homo sapiens, UniProt Q9H3N8); experiment: TGFα shedding assay, wild-type H4R; assay type: cell-based; conditions: WT H4R; AP-TGFα release; read-out: Emax (%) mean ± SEM
T1 construct: a mutant H4R (human, full-length, and untagged); expressed in transfected cells; host or cells: HEK293A
Description: (§1) The mutants were prepared using the primers listed in Supplementary Table 2. […] The chimeric Gαq/i1 subunit comprises the Gαq backbone and Gαi1-derived six-amino acid C-terminus and couples with Gi-coupled H4R but induces a Gq-dependent TGFα shedding response. After culturing for 1 day and incubating at 37 °C in a 5% CO2 incubator, the transfected cells were harvested by trypsinization, neutralized with Dulbecco’s modified Eagle’s medium containing 10% fetal calf serum (FCS) and penicillin–streptomycin, washed once with Hank’s balanced salt solution (HBSS) containing 5 mM of HEPES (pH 7.4), and resuspended in 6 mL of the HEPES-containing HBSS. The cell suspension was seeded into a 96-well plate at a volume of […] per well (typically, 48 wells per transfected cells) and incubated for 30 min in the CO2 incubator. Test compounds (10×, diluted in 0.01% BSA and 5 mM of HEPES-containing HBSS, […] volume) were added to duplicate wells and incubated for 1 h. After centrifugation, the conditioned medium ([…]) was transferred to an empty 96-well plate. AP reaction solution [10 mM of p-nitrophenylphosphate (p-NPP), 120 mM of Tris–HCl (pH 9.5), 40 mM of NaCl, and 10 mM of MgCl2] was dispensed into the cell culture plates and plates containing conditioned media ([…]). Absorbance was measured at 405 nm before and after a 1-h incubation period at 25 °C using a microplate reader (iMark™ Microplate Absorbance Reader; BioRad). Ligand-induced AP-TGFα release was calculated as previously described. The vehicle-treated AP-TGFα release signal was set as a baseline unless otherwise specified. AP-TGFα release signals were fitted with a four-parameter sigmoidal concentration-response curve, from which EC50 and Emax values were obtained, using GraphPad Prism 9 software (GraphPad Prism). Negative values of logarithmically transformed EC50 values (pEC50) were used to calculate the mean and standard error of independent experiments.
(§2) All functional study data were analyzed using Prism 9 (GraphPad) and are presented as mean ± standard error of the mean (SEM) of three independent experiments. Statistical analyses were performed using Prism 9 (GraphPad) with one-way analysis of variance followed by Dunnett’s post-hoc test. Values with p < 0.05 are considered statistically significant.

human H4R D94A mutant = target: T2, human H4R D94A mutant (Homo sapiens, UniProt Q9H3N8, D94A); experiment: TGFα shedding assay, H4R D94A mutant; assay type: cell-based; conditions: D94A mutant vs wild type
T2 construct: a mutant H4R (human, full-length, and untagged); expressed in transfected cells; host or cells: HEK293A
Description: as §1
(§3) All functional study data were analyzed using Prism 9 (GraphPad) and are presented as mean ± standard error of the mean (SEM) of three independent experiments. […]

human H4R Y95A mutant = target: T3, human H4R Y95A mutant (Homo sapiens, UniProt Q9H3N8, Y95A); experiment: TGFα shedding assay, H4R Y95A mutant; assay type: cell-based; conditions: Y95A mutant vs wild type
T3 construct: a mutant H4R (human, full-length, and untagged); expressed in transfected cells; host or cells: HEK293A
Description: as §1, §3

human H4R T99A mutant = target: T4, human H4R T99A mutant (Homo sapiens, UniProt Q9H3N8, T99A); experiment: TGFα shedding assay, H4R T99A mutant; assay type: cell-based; conditions: T99A mutant; AP-TGFα release; read-out: Emax (%) mean ± SEM
T4 construct: a mutant H4R (human, full-length, and untagged); expressed in transfected cells; host or cells: HEK293A
Description: as §1, §2

human H4R N147A mutant = target: T5, human H4R N147A mutant (Homo sapiens, UniProt Q9H3N8, N147A); experiment: TGFα shedding assay, H4R N147A mutant; assay type: cell-based; conditions: N147A mutant; AP-TGFα release; read-out: Emax (%) mean ± SEM
T5 construct: a mutant H4R (human, full-length, and untagged); expressed in transfected cells; host or cells: HEK293A
Description: as §1, §2

human H4R N147W mutant = target: T6, human H4R N147W mutant (Homo sapiens, UniProt Q9H3N8, N147W); experiment: TGFα shedding assay, H4R N147W mutant; assay type: cell-based; conditions: N147W (H1R mimic) mutant vs wild type
T6 construct: a mutant H4R (human, full-length, and untagged); expressed in transfected cells; host or cells: HEK293A
Description: as §1, §2

human H4R N147Y mutant = target: T7, human H4R N147Y mutant (Homo sapiens, UniProt Q9H3N8, N147Y); experiment: TGFα shedding assay, H4R N147Y mutant; assay type: cell-based; conditions: N147Y mutant; AP-TGFα release; read-out: Emax (%) mean ± SEM
T7 construct: a mutant H4R (human, full-length, and untagged); expressed in transfected cells; host or cells: HEK293A
Description: as §1, §2

human H4R E182N mutant = target: T8, human H4R E182N mutant (Homo sapiens, UniProt Q9H3N8, E182N); experiment: TGFα shedding assay, H4R E182N mutant; assay type: cell-based; conditions: E182N (H1R mimic) mutant vs wild type
T8 construct: a mutant H4R (human, full-length, and untagged); expressed in transfected cells; host or cells: HEK293A
Description: as §1, §3

human H4R Y319A mutant = target: T9, human H4R Y319A mutant (Homo sapiens, UniProt Q9H3N8, Y319A); experiment: TGFα shedding assay, H4R Y319A mutant; assay type: cell-based; conditions: Y319A, raw replicates
T9 construct: a mutant H4R (human, full-length, and untagged); expressed in transfected cells; host or cells: HEK293A
Description: as §1, §2

human H4R F344I mutant = target: T10, human H4R F344I mutant (Homo sapiens, UniProt Q9H3N8, F344I); experiment: TGFα shedding assay, H4R F344I mutant; assay type: cell-based; conditions: F344I (H1R mimic) mutant vs wild type
T10 construct: a mutant H4R (human, full-length, and untagged); expressed in transfected cells; host or cells: HEK293A
Description: as §1, §2

human H4R Q347A mutant = target: T11, human H4R Q347A mutant (Homo sapiens, UniProt Q9H3N8, Q347A); experiment: TGFα shedding assay, H4R Q347A mutant; assay type: cell-based; conditions: Q347A mutant; AP-TGFα release; read-out: Emax (%) mean ± SEM
T11 construct: a mutant H4R (human, full-length, and untagged); expressed in transfected cells; host or cells: HEK293A
Description: as §1, §2

human H4R Q347G mutant = target: T12, human H4R Q347G mutant (Homo sapiens, UniProt Q9H3N8, Q347G); experiment: TGFα shedding assay, H4R Q347G mutant; assay type: cell-based; conditions: for Shedding assay: Q347G, raw replicates
T12 construct: a mutant H4R (human, full-length, and untagged); expressed in transfected cells; host or cells: HEK293A
Description: as §1, §2

human H4R W348A mutant = target: T13, human H4R W348A mutant (Homo sapiens, UniProt Q9H3N8, W348A); experiment: TGFα shedding assay, H4R W348A mutant; assay type: cell-based; conditions: W348A mutant vs wild type
T13 construct: a mutant H4R (human, full-length, and untagged); expressed in transfected cells; host or cells: HEK293A
Description: as §1, §3

H4R = conditions: cited from earlier work
H3R = conditions: cited from earlier work
H1R = conditions: range in words; cited from earlier work
H2R = conditions: range in words; cited from earlier work

T9 sequence (Q9H3N8 whole entry Y319A): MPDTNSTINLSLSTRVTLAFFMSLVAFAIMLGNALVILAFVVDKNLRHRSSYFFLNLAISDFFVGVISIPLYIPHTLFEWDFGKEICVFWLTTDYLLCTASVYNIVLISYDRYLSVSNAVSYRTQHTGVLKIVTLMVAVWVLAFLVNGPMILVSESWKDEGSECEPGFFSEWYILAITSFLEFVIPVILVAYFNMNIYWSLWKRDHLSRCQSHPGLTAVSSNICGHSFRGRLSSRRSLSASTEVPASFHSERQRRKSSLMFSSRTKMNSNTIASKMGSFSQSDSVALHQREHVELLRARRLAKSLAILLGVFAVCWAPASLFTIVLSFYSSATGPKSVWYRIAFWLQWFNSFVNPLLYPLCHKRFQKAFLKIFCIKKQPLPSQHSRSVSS
T12 sequence (Q9H3N8 whole entry Q347G): as the sequence (Q9H3N8 whole entry Y319A) above, with A319Y, Q347G counted along it
T10 sequence (Q9H3N8 whole entry F344I): as the sequence (Q9H3N8 whole entry Y319A) above, with A319Y, F344I counted along it
T7 sequence (Q9H3N8 whole entry N147Y): as the sequence (Q9H3N8 whole entry Y319A) above, with N147Y, A319Y counted along it
T13 sequence (Q9H3N8 whole entry W348A): as the sequence (Q9H3N8 whole entry Y319A) above, with A319Y, W348A counted along it
T1 sequence (Q9H3N8 whole entry): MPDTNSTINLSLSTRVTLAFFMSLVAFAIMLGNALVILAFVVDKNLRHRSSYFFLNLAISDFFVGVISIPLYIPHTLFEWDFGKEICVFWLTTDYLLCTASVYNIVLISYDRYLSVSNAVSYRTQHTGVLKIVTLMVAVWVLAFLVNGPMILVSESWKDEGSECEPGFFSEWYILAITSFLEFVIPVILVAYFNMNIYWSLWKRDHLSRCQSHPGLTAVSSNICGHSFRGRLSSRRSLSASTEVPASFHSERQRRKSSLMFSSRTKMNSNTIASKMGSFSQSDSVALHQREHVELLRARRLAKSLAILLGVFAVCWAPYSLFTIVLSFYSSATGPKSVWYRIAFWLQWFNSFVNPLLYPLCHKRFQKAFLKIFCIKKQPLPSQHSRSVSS
T6 sequence (Q9H3N8 whole entry N147W): as the sequence (Q9H3N8 whole entry Y319A) above, with N147W, A319Y counted along it
T5 sequence (Q9H3N8 whole entry N147A): as the sequence (Q9H3N8 whole entry Y319A) above, with N147A, A319Y counted along it
T4 sequence (Q9H3N8 whole entry T99A): as the sequence (Q9H3N8 whole entry Y319A) above, with T99A, A319Y counted along it
T2 sequence (Q9H3N8 whole entry D94A): as the sequence (Q9H3N8 whole entry Y319A) above, with D94A, A319Y counted along it
T3 sequence (Q9H3N8 whole entry Y95A): as the sequence (Q9H3N8 whole entry Y319A) above, with Y95A, A319Y counted along it
T11 sequence (Q9H3N8 whole entry Q347A): as the sequence (Q9H3N8 whole entry Y319A) above, with A319Y, Q347A counted along it
T8 sequence (Q9H3N8 whole entry E182N): as the sequence (Q9H3N8 whole entry Y319A) above, with E182N, A319Y counted along it

With NCCc1c[nH]cn1 [Histamine, histamine] the Emax (human wild-type H4R) was 19.4 ± 1.15%, the “signaling activity at mutant, in words” value (human H4R D94A mutant) was “loss of activity” and the “signaling activity at mutant, in words” value (human H4R Y95A mutant) was “dramatically reduced”. The Emax (human H4R T99A mutant) was 22.8 ± 4.74%, the Emax (human H4R N147A mutant) was 14.1 ± 1.55% and the “signaling activity at mutant, in words” value (human H4R N147W mutant) was “loss of signaling activity”. The Emax (human H4R N147Y mutant) was 12.7 ± 0.59%, the “signaling activity at mutant, in words” value (human H4R E182N mutant) was “loss of signaling activity” and the Shedding assay (human H4R Y319A mutant; Histamine (M) -5) was 10.8768 and 12.6921 and 5.241 and 7.176 and 7.908 and 3.094 and 14.7688 and 13.1717 and 9.412. The Shedding assay (human H4R Y319A mutant; Histamine (M) -6) was 7.788 and 3.872 and 6.096 and 6.136 and 6.023 and -28.9656 and 4.365 and 5.9934 and -0.2046, the Shedding assay (human H4R Y319A mutant; Histamine (M) -7) was 2.44 and -1.231 and 2.155 and 1.85 and -1.394 and -29.3347 and -0.9921 and -1.291 and -2.241 and the Shedding assay (human H4R Y319A mutant; Histamine (M) -8) was 0.6613 and -7 and -0.6175 and -0.4917 and -2.608 and -5.072 and 0.7937 and -1.913 and -2.583. The Shedding assay (human H4R Y319A mutant; Histamine (M) -9) was -1.209 and -22 and -6.981 and -12.6602 and -5.831 and -0.2422 and 1.077 and -0.278 and -3.864, the Shedding assay (human H4R Y319A mutant; Histamine (M) -10) was 1.569 and -4.989 and -1.258 and -2.207 and 3.939 and 1.7806 and 0.1134 and -2.911 and -0.5847 and the “signaling activity at mutant, in words” value (human H4R F344I mutant) was “did not exhibit histamine activity”. The Emax (human H4R Q347A mutant) was 10.1 ± 0.39%, the Shedding assay (human H4R Q347G mutant; Histamine (M) -5) was 4.036 and 4.533 and 6.034 and 9.629 and 9.888 and 8.1039 and 5.715 and 9.816 and 2.227 and the Shedding assay (human H4R Q347G mutant; Histamine (M) -6) was 1.244 and 2.414 and 2.709 and 6.101 and 2.59 and 6.7488 and 1.268 and 6.261 and -9.381. The Shedding assay (human H4R Q347G mutant; Histamine (M) -7) was -1.992, the Shedding assay (human H4R Q347G mutant; Histamine (M) -8) was -6.39 and -0.908 and -4.351 and 0.1532 and -4.023 and 1.012 and -2.686 and 0.1556 and -3.9539 and the Shedding assay (human H4R Q347G mutant; Histamine (M) -9) was -4.698 and -2.781 and -3.3698 and 0.654 and -4.363 and -0.5978 and -4.585 and -1.275 and -2.147. The Shedding assay (human H4R Q347G mutant; Histamine (M) -10) was -5.104 and -0.2815 and -4.911 and 2.46 and -0.8571 and 1.119 and -8.947 and 3.16 and -0.4453, the Emax (human H4R Q347G mutant; Q347G mutant, AP-TGFα release, read-out: Emax (%) mean ± SEM) was 8.8 ± 2.03% and the “signaling activity at mutant, in words” value (human H4R W348A mutant) was “loss of signaling activity”. The “affinity of H4R” value (H4R; range in words) was “nM range”, the “affinity of H3R” value (H3R; range in words) was “nM range” and the “affinity of H1R” value (H1R) was “μM range”. For the same compound, the “affinity of H2R” value (H2R) was “μM range”.
In the case of CN=C(NC#N)NC[C@H]1CC[C@H](c2cnc[nH]2)O1 [OUP-16], the “selectivity for H4R” value (H4R; H4R over H3R) is listed as 16 fold, the Ki (H4R; read-out: H4R Ki) is listed as 125 nM and the Ki (H3R; read-out: H3R Ki) is listed as 2000 nM.
